Values of other authors, collected in paper PMC9329312, “Decoding kinase-adverse event associations for small molecule kinase inhibitors” (Nature Communications, 2022).
Where two headings read alike, the source gives them in different places.

Settings: ref FAERS

CCOc1cc2ncc(C#N)c(Nc3ccc(OCc4ccccn4)c(Cl)c3)c2cc1NC(=O)/C=C/CN(C)C [neratinib]
Pyrexia, % of Cases: 1.4% | Quality of life decreased, % of Cases: 0.075% | Radiation injury, % of Cases: 0.075% | Rash erythematous, % of Cases: 0.3% | Rash macular, % of Cases: 0.075% | Rash papular, % of Cases: 0.075% | Rash pruritic, % of Cases: 0.3% | Rash pustular, % of Cases: 0.225% | Rash vesicular, % of Cases: 0.075% | Rash, % of Cases: 5.0% | Raynaud's phenomenon, % of Cases: 0.075% | Recall phenomenon, % of Cases: 0.075% | Rectal haemorrhage, % of Cases: 0.5% | Recurrent cancer, % of Cases: 0.075% | Red blood cell count decreased, % of Cases: 0.225% | Red blood cell sedimentation rate increased, % of Cases: 0.075% | Reflux laryngitis, % of Cases: 0.15% | Refraction disorder, % of Cases: 0.075% | Renal disorder, % of Cases: 0.45% | Renal failure, % of Cases: 0.6% | Renal function test abnormal, % of Cases: 0.15% | Renal impairment, % of Cases: 0.8% | Renal mass, % of Cases: 0.075% | Respiratory arrest, % of Cases: 0.075% | Respiratory failure, % of Cases: 0.15% | Restless legs syndrome, % of Cases: 0.075% | Retching, % of Cases: 0.3% | Retinal artery occlusion, % of Cases: 0.075% | Retinal tear, % of Cases: 0.075% | Rhinorrhoea, % of Cases: 0.75% | Road traffic accident, % of Cases: 0.075% | Rubber sensitivity, % of Cases: 0.075% | Saliva altered, % of Cases: 0.075% | Salivary gland cancer, % of Cases: 0.15% | Salpingectomy, % of Cases: 0.075% | Salpingo-oophorectomy bilateral, % of Cases: 0.075% | Scab, % of Cases: 0.075% | Seasonal allergy, % of Cases: 0.075% | Seizure, % of Cases: 0.225% | Sensation of foreign body, % of Cases: 0.15% | Seroma, % of Cases: 0.075% | Sinus disorder, % of Cases: 0.075% | Sinus headache, % of Cases: 0.075% | Sinus tachycardia, % of Cases: 0.075% | Sinusitis, % of Cases: 0.15% | Sjogren's syndrome, % of Cases: 0.075% | Skin atrophy, % of Cases: 0.075% | Skin burning sensation, % of Cases: 0.075% | Skin discolouration, % of Cases: 0.225% | Skin disorder, % of Cases: 0.075% | Skin erosion, % of Cases: 0.075% | Skin exfoliation, % of Cases: 0.8% | Skin fissures, % of Cases: 0.9% | Skin haemorrhage, % of Cases: 0.075% | Skin irritation, % of Cases: 0.075% | Skin odour abnormal, % of Cases: 0.075% | Skin reaction, % of Cases: 0.075% | Skin ulcer, % of Cases: 0.075% | Sleep disorder, % of Cases: 0.15% | Slow speech, % of Cases: 0.075% | Sluggishness, % of Cases: 0.075% | Small intestine adenocarcinoma, % of Cases: 0.075% | Sneezing, % of Cases: 0.225% | Snoring, % of Cases: 0.075% | Somnolence, % of Cases: 1.5% | Spinal pain, % of Cases: 0.075% | Sputum retention, % of Cases: 0.075% | Staphylococcal infection, % of Cases: 0.075% | Stomatitis, % of Cases: 2.0% | Stress fracture, % of Cases: 0.075% | Stress, % of Cases: 0.3% | Subclavian vein thrombosis, % of Cases: 0.075% | Sunburn, % of Cases: 0.075% | Surgery, % of Cases: 0.6% | Swelling face, % of Cases: 0.225% | Swelling, % of Cases: 0.15% | Swollen tongue, % of Cases: 0.15% | Syncope, % of Cases: 0.15% | Tachycardia, % of Cases: 0.225% | Taste disorder, % of Cases: 1.2% | Temporomandibular joint syndrome, % of Cases: 0.075% | Tenderness, % of Cases: 0.075% | Tension headache, % of Cases: 0.075% | Therapeutic product ineffective for unapproved indication, % of Cases: 0.075% | Therapy cessation, % of Cases: 0.375% | Therapy change, % of Cases: 0.225% | Therapy interrupted, % of Cases: 0.15% | Thirst, % of Cases: 0.375% | Throat irritation, % of Cases: 0.075% | Throat tightness, % of Cases: 0.075% | Thrombocytopenia, % of Cases: 0.075% | Thrombosis, % of Cases: 0.225% | Thyroid cancer, % of Cases: 0.075% | Thyroid mass, % of Cases: 0.075% | Tongue discolouration, % of Cases: 0.075% | Tongue discomfort, % of Cases: 0.075% | Tongue erythema, % of Cases: 0.15% | Tooth extraction, % of Cases: 0.075% | Tooth fracture, % of Cases: 0.075% | Tooth injury, % of Cases: 0.075% | Toothache, % of Cases: 0.15% | Toxicity to various agents, % of Cases: 0.075% | Tracheal disorder, % of Cases: 0.075% | Transaminases increased, % of Cases: 0.075% | Transient ischaemic attack, % of Cases: 0.075% | Transitional cell carcinoma metastatic, % of Cases: 0.075% | Treatment noncompliance, % of Cases: 0.075% | Tremor, % of Cases: 0.375% | Trichorrhexis, % of Cases: 0.075% | Tumour flare, % of Cases: 0.075% | Tumour marker increased, % of Cases: 0.075% | Tumour pain, % of Cases: 0.075% | Tumour ulceration, % of Cases: 0.075% | Underdose, % of Cases: 2.6% | Upper limb fracture, % of Cases: 0.075% | Upper respiratory tract infection, % of Cases: 0.375% | Upper-airway cough syndrome, % of Cases: 0.075% | Urinary retention, % of Cases: 0.075% | Urinary tract discomfort, % of Cases: 0.075% | Urinary tract infection, % of Cases: 2.1% | Urine analysis abnormal, % of Cases: 0.075% | Urine odour abnormal, % of Cases: 0.075% | Urticaria, % of Cases: 0.375% | Uterine cancer, % of Cases: 0.075% | Uterine leiomyoma, % of Cases: 0.075% | Vaginal discharge, % of Cases: 0.075% | Vaginal haemorrhage, % of Cases: 0.225% | Venous pressure jugular increased, % of Cases: 0.075% | Vertigo positional, % of Cases: 0.075% | Vertigo, % of Cases: 0.075% | Viral infection, % of Cases: 0.15% | Vision blurred, % of Cases: 0.375% | Visual impairment, % of Cases: 0.225% | Vitamin D decreased, % of Cases: 0.075% | Vitiligo, % of Cases: 0.075% | Vitreous floaters, % of Cases: 0.075% | Volume blood decreased, % of Cases: 0.075% | Vomiting projectile, % of Cases: 0.075% | Vomiting, % of Cases: 13.8% | Vulvovaginal burning sensation, % of Cases: 0.075% | Vulvovaginal dryness, % of Cases: 0.075% | Vulvovaginal pain, % of Cases: 0.075% | Vulvovaginal pruritus, % of Cases: 0.15% | Weight decreased, % of Cases: 4.9% | Weight fluctuation, % of Cases: 0.075% | Weight increased, % of Cases: 0.3% | White blood cell count decreased, % of Cases: 0.7% | White blood cell count increased, % of Cases: 0.15% | Wound haemorrhage, % of Cases: 0.075% | Wound, % of Cases: 0.075% | Wrist fracture, % of Cases: 0.075% | Wrong technique in product usage process, % of Cases: 0.075% | Xeroderma, % of Cases: 0.075% | Abdominal discomfort, % of Cases (listed as Neratinib): 4.80% | Abdominal pain upper, % of Cases (listed as Neratinib): 6.00% | Abdominal pain, % of Cases (listed as Neratinib): 6.20% | Constipation, % of Cases (listed as Neratinib): 15.50% | Death, % of Cases (listed as Neratinib): 9.60% | Decreased appetite, % of Cases (listed as Neratinib): 11.90% | Dehydration, % of Cases (listed as Neratinib): 6.60% | Diarrhoea, % of Cases (listed as Neratinib): 61.80% | Dizziness, % of Cases (listed as Neratinib): 4.60% | Dyspepsia, % of Cases (listed as Neratinib): 4.40% | Fatigue, % of Cases (listed as Neratinib): 25.20% | Headache, % of Cases (listed as Neratinib): 5.40% | Hospitalisation, % of Cases (listed as Neratinib): 5.30% | Muscle spasms, % of Cases (listed as Neratinib): 4.20% | Nausea, % of Cases (listed as Neratinib): 29.70% | Off label use, % of Cases (listed as Neratinib): 11.60% | Product dose omission issue, % of Cases (listed as Neratinib): 7.80% | Rash, % of Cases (listed as Neratinib): 5.00% | Vomiting, % of Cases (listed as Neratinib): 13.80% | Weight decreased, % of Cases (listed as Neratinib): 4.90%
